In publication PMC9611727, “Optimization of a Novel Mandelamide-Derived Pyrrolopyrimidine Series of PERK Inhibitors” (Pharmaceutics, 2022):

Legend:
PERK = biological target: T1, PERK (Homo sapiens, UniProt Q9NZJ5); test: PERK biochemical LanthaScreen TR-FRET assay (GFP-eIF2a phosphorylation); conditions: cell-free TR-FRET, GFP-eIF2a substrate; read-out: PERK IC50
T1 sequence (Q9NZJ5 30-1116): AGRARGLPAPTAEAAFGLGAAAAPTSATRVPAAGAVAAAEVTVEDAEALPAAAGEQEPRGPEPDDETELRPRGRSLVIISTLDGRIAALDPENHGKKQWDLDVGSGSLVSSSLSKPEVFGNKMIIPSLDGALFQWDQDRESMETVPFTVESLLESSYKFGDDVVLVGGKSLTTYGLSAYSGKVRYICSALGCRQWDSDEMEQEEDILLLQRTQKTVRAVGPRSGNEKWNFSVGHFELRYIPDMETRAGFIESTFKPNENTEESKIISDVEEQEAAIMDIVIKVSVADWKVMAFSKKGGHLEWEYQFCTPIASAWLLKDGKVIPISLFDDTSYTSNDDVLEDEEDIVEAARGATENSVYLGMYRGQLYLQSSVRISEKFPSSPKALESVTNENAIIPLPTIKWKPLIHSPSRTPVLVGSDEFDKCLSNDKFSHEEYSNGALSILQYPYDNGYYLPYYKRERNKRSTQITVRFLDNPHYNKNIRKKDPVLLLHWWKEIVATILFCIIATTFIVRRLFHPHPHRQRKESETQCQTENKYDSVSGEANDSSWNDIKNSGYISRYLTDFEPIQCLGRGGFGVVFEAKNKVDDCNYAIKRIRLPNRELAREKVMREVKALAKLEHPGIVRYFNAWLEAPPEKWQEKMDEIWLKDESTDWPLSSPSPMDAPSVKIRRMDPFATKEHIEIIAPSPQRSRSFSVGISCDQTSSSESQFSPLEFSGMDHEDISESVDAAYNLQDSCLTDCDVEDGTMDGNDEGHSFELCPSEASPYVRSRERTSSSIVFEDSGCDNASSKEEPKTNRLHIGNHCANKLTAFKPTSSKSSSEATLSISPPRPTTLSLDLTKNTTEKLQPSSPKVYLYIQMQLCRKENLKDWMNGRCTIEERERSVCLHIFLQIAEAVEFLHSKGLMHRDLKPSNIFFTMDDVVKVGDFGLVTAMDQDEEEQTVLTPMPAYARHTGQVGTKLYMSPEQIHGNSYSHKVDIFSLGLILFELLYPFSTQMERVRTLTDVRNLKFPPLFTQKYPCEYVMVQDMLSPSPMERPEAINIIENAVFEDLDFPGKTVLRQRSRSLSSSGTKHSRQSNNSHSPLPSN
Description: Methods used to evaluate biochemical PERK activity are described and published elsewhere. In brief, biochemical PERK activity is evaluated using a LanthaScreenTM ([…]) TR-FRET assay to detect phosphorylation of a GFP-tagged eIF2a substrate (ThermoFisher). Excitation at […] of a terbium chelate donor fluorophore in an eIF2a antibody results in energy transfer to GFP acceptor fluorophore upon eIF2a phosphorylation by PERK. Reaction buffer was composed of 50 mM HEPES (pH 7.4), 10 mM MgCl2, 1 mM EGTA and 0.01% (v/v) BrijTM-35. Reactions were initiated by the addition of substrate and ATP, followed by incubation for 1 h at RT prior to addition of EDTA and the anti-peIF2a antibody. FRET was measured by an EnVision Plate Reader (PerkinElmer). Data were plotted as percent inhibition along a 10-point 3-fold dilution series of inhibitors. IC50 values were calculated using 4-parameter logistical fitting in XLFit.
(§1) The PERK activity of analog I was evaluated using cell-free biochemical assays. In these assays, PERK phosphorylation of eIF2a was assessed using a FRET-based labelled protein assay. Compounds were then evaluated for cellular activity by quantifying inhibition of eIF2a phosphorylation in HEK293 cells treated with the ER inducer tunicamycin [7].

p-eIF2α = test: Cellular PERK inhibition: p-eIF2a TR-FRET in tunicamycin-treated HEK293-EGFP-eIF2a cells; format: cell-based; conditions: Homo sapiens; HEK293 cells, tunicamycin-induced ER stress; read-out: p-eIF2α IC50
Description: Methods used to evaluate in vitro cellular PERK inhibition are described and published elsewhere. In brief, stableHEK293 cells were created using lentiviral particles harboring a GFP-eIF2a expression vector. Transfectants were selected by puromycin and enriched using fluorescent cell sorting based on GFP expression. HEK293-EGFP-eIF2a cells were plated at 5000 cells/well in 384-well assay plates and incubated overnight. The following day, pyrrolopyrimidine analogs were added to wells using an Echo acoustic dispenser and incubated for 30 min. ER stress was induced by the addition of tunicamycin to the wells at […] for 2 h. Cells were lysed and peIF2a was evaluated using a TR-FRET system, as described above.
as §1

Row | Compound | IC50 (PERK) [nM] | IC50 (p-eIF2α) [nM]
1 | Cc1cc(NC(=O)[C@@H](O)c2cccc(F)c2)ccc1-c1cn(C)c2ncnc(N)c12 [Compound 12, (S)-N-(4-(4-amino-7-methyl-7H-pyrrolo[2,3-d]pyrimidin-5-yl)-3-methylphenyl) -2-(3-fluorophenyl) -2-hydroxyacetamide] | 7.8 | 57
2 | Cc1cc(NC(=O)[C@H](O)c2ccccc2)ccc1-c1cn(C)c2ncnc(N)c12 [Compound 13] | 1.8 | 23
3 | Cc1cc(NC(=O)Cc2ccccc2)ccc1-c1cn(C)c2ncnc(N)c12 [Compound 14] | 5.2 | 41
4 | Cc1cc(NC(=O)CCc2ccccc2)ccc1-c1cn(C)c2ncnc(N)c12 [Compound 15] | 126 | 1930
5 | Cc1cc(NC(=O)c2ccccc2)ccc1-c1cn(C)c2ncnc(N)c12 [Compound 16] | 168 | 3960
6 | Cc1cc(NC(=O)C(F)(F)c2ccccc2)ccc1-c1cn(C)c2ncnc(N)c12 [Compound 17] | 300 | 532
7 | Cc1cc(NC(=O)Oc2ccccc2)ccc1-c1cn(C)c2ncnc(N)c12 [Compound 18] | 3980 | > 10000
8 | Cc1cc(NC(=O)Nc2ccccc2)ccc1-c1cn(C)c2ncnc(N)c12 [Compound 19] | 21 | 211
9 | Cc1cc(NC(=O)N(C)c2ccccc2)ccc1-c1cn(C)c2ncnc(N)c12 [Compound 20] | 108 | 1750
10 | CO[C@@H](C(=O)Nc1ccc(-c2cn(C)c3ncnc(N)c23)c(C)c1)c1ccccc1 [Compound 21] | 14 | 174
11 | Cc1cc(NC(=O)C(C)(O)c2ccccc2)ccc1-c1cn(C)c2ncnc(N)c12 (centres unmarked) [Compound 22] | 56 | 184
12 | Cc1cc(NC(=O)[C@H](N)c2ccccc2)ccc1-c1cn(C)c2ncnc(N)c12 [Compound 23] | 33 | 581
13 | C#Cc1cccc([C@@H](O)C(=O)Nc2ccc(-c3cn(C)c4nc(C)nc(N)c34)c(C)c2)c1 [Compound 32] | 3 | 7.8
14 | Cc1nc(N)c2c(-c3ccc(NC(=O)[C@H](O)c4cccc(C5CC5)c4)cc3C)cn(C)c2n1 [Compound 35] | 5.9 | 17
15 | Cc1nc(N)c2c(-c3ccc(NC(=O)[C@H](O)c4cccc(S(C)(=O)=O)c4)cc3C)cn(C)c2n1 [Compound 37] | > 1000 | > 10000
16 | Cc1nc(N)c2c(-c3ccc(NC(=O)[C@H](O)c4cc(F)cc(Cl)c4)cc3C)cn(C)c2n1 [Compound 40] | 2.9 | 8.5
17 | Cc1nc(N)c2c(-c3ccc(NC(=O)[C@H](O)c4cc(F)cc(C#N)c4)cc3C)cn(C)c2n1 [Compound 42] | 4.2 | 32

Further lines, results first:

Row | IC50 (PERK) [nM] | IC50 (p-eIF2α) [nM] | Compound
18 | 102 | 303 | Cc1nc(N)c2c(-c3ccc(NC(=O)[C@H](O)c4ccccc4F)cc3C)cn(C)c2n1 [Compound 25]
19 | 343 | 2050 | Cc1nc(N)c2c(-c3ccc(NC(=O)C(O)c4ccccc4C(F)(F)F)cc3C)cn(C)c2n1 (centres unmarked) [Compound 27]
20 | 107 | 713 | Cc1nc(N)c2c(-c3ccc(NC(=O)[C@H](O)c4ccccc4Cl)cc3C)cn(C)c2n1 [Compound 29]
21 | 14 | 83 | Cc1cccc([C@@H](O)C(=O)Nc2ccc(-c3cn(C)c4nc(C)nc(N)c34)c(C)c2)c1 [Compound 30]
22 | 26 | 122 | Cc1nc(N)c2c(-c3ccc(NC(=O)C(O)c4ccccc4C)cc3C)cn(C)c2n1 (centres unmarked) [Compound 31]
23 | 3 | 14 | Cc1nc(N)c2c(-c3ccc(NC(=O)[C@H](O)c4cccc(Br)c4)cc3C)cn(C)c2n1 [Compound 33]
24 | 5.9 | 21 | Cc1nc(N)c2c(-c3ccc(NC(=O)[C@H](O)c4cccc(C(F)F)c4)cc3C)cn(C)c2n1 [Compound 34]
25 | 8 | 325 | Cc1nc(N)c2c(-c3ccc(NC(=O)[C@H](O)c4cccc(C#N)c4)cc3C)cn(C)c2n1 [Compound 36]
